Literature values in PMC7582727, “Functional Impact of BeKm-1, a High-Affinity hERG Blocker, on Cardiomyocytes Derived from Human-Induced Pluripotent Stem Cells” (International Journal of Molecular Sciences, 2020).
pIC50: −log10 of the molar value.

Tests used:
hERG channel = details: cited from earlier work
Description: The Kv11.1 channel (hERG) and the corresponding IKr current play a major role in cardiac repolarization (Figure S1). […] Long QT syndrome is one of the cardiac diseases that has been studied in the greatest detail. Type II long QT syndrome is associated with a decrease in IKr currents, as opposed to short QT syndrome, which is associated with increased IKr currents. Type II long QT syndrome is called “inherited” when a mutation in the gene encoding hERG, KCNH2, gives rise to a loss of ... || In this report, we focused on BeKm-1, a toxin that was originally isolated from the venom of Buthus eupeus scorpion. […] According to its 3D structure, the peptide adopts an α-helix and three β-strands organized in a twisted antiparallel β-sheet. By homology with other toxins, BeKm-1 is a member of the γ-KTx subfamily of scorpion toxins.

hiPS-CMs = details: ref [13]; cited from earlier work
Description: In this study, we describe the effects of the high-affinity hERG blocker BeKm-1 on hiPS-CMs. By using a variety of approaches, we efficiently assessed these effects on the electrophysiological, calcium handling, and contractile properties of hiPS-CMs providing a large response picture of this natural peptide.

rabbit isolated hearts = details: ref [14]; cited from earlier work
integrated models = details: ref [15]; cited from earlier work

Row | SMILES | pIC50 (hERG channel) | face of hERG channel acted on (hERG channel) | hERG channel block (hERG channel; non-selective compounds, no reference given) | chronotropic response, hiPS-CMs (hiPS-CMs) | chronotropic response, rabbit isolated hearts (rabbit isolated hearts) | bradycardic effects (integrated models)
2 | CN(C)CCCN1c2ccccc2Sc2ccc(Cl)cc21 [chlorpromazine] |  |  | block hERG channels |  |  | 
3 | CN(CCOc1ccc(NS(C)(=O)=O)cc1)CCc1ccc(NS(C)(=O)=O)cc1 [dofetilide] | […] | […] |  | negative chronotropic response | negative chronotropic response | bradycardic effects
